Reference: patent US4906661A, “Esters of aryloxypropanolamine derivatives” (E. I. Du Pont de Nemours and Company, priority 1989, dated 1990)

Experiments:
[1] = molecular target: β2 receptors, guinea pig trachea (Cavia porcellus, UniProt Q8K4Z4); assay: cell-based; conditions: Table I; guinea pig trachea, vs isoproterenol; -log KB; read-out: PA2 Trachea (converted)
Description: Each tissue was suspended between a fixed glass rod and a Statham Universal Transducer connected to a Beckman recorder. Atria were allowed to beat spontaneously under a loading tension of approximately 0.5 gm. Intrinsic depressant or stimulant activity was determined for each compound by progressively increasing concentrations in the tissue baths at 60-minute intervals. Tissues were not washed between increments. […] Changes in rate in response to isoproterenol, a standard β-receptor agonist, were measured in the absence and presence of test compounds. Spiral strips of guinea pig trachea were suspended under 5 gm resting tension and incubated with phentolamine, tropolone and cocaine. Active tension was generated by addition of carbachol (3.0×10^-7 M) and decreases in tension in response to isoproterenol were quantitated. Cumulative concentration-response curves were produced with isoproterenol both before and after 60-minute incubation of test compounds with atria and trachea. […] The blocking potency of test compounds was estimated by computing pA2 values (-log KB) by the method of Furchgott, the Pharmacological Differentiation of Adrenergic Receptors, Ann. […] A ratio greater than one indicates cardioselectivity. Test drugs were dissolved in distilled water and added to the bath (30 ml) in a volume of 10 or 100 μl.

[2] = Enzymatic hydrolysis by dog blood (procedure C); type: in vitro ADME; conditions: 37° C.; for remaining at 1 h: read-out: % Drug remaining, 1 HR, dog blood; for remaining at 2 h: read-out: % Drug remaining, 2 HR, dog blood
Description: Chemicals--Acetonitrile was "HPLC" grade. Distilled water was used to dissolve the compounds and 0.01 N HCl was used to dissolve compounds requiring an acidic pH for dissolution.
Enzyme Source--Fresh aqueous humor was collected from eyes of dogs using a 23-gauge needle while fresh dog blood was collected into heparinized Vacutainer tubes. Fresh liver was homogenized in 0.9% NaCl using a Potter-Elvehjem Teflon pestle and glass homogenizer to make a 25% (W/V) homogenate.
Incubation Condition--A 0.5 ml aliquot of dog aqueous humor, blood, or liver homogenate was incubated with 12.5 μg (0.5 ml) of β-blocker in a Dubnoff shaking metabolic incubator at 37° C. for 60 and 120 min. Denatured tissue controls were prepared by adding 2.0 ml of acetonitrile into 0.5 ml of aqueous humor, blood, or liver homogenate to destroy esterase activities prior to addition of the β-blockers. These controls were then incubated at 37° C. for 120 min. After 60 and 120 min, the incubations were terminated by addition of 2 ml of acetonitrile and immediately mixed by a Vortex.cndot. to stop esterase activities.
Sample Processing and Data Analyses--All samples were centrifuged at 4000 RPM for 10 min to sediment denatured proteins. The resultant supernatants were transferred to WISP.cndot. vials and analyzed using an HPLC assay developed for beta blockers. The hydrolysis of β-blockers by aqueous humor, blood, and liver homogenate was determined by disappearance of the compounds. The extent of enzymatic hydrolysis by each tissue was determined by comparing the amount of each compound (absolute peak area) recovered at each time point to the amount of each compound (absolute peak area) in denatured tissue control and aqueous control samples.

[3] = test system: β-adrenergic receptors, guinea pig trachea vs right atria; assay: Cardioselectivity, KB trachea/KB atria; type: cell-based; conditions: 10^(pA2 atria-pA2 trachea); ratio greater than one indicates cardioselectivity
Description: Each tissue was suspended between a fixed glass rod and a Statham Universal Transducer connected to a Beckman recorder. Atria were allowed to beat spontaneously under a loading tension of approximately 0.5 gm. Intrinsic depressant or stimulant activity was determined for each compound by progressively increasing concentrations in the tissue baths at 60-minute intervals. Tissues were not washed between increments. The maximum concentration showing little or no cardiodepressant activity was chosen for blockade experiments. Changes in rate in response to isoproterenol, a standard β-receptor agonist, were measured in the absence and presence of test compounds. Spiral strips of guinea pig trachea were suspended under 5 gm resting tension and incubated with phentolamine, tropolone and cocaine. Active tension was generated by addition of carbachol (3.0×10^-7 M) and decreases in tension in response to isoproterenol were quantitated. Cumulative concentration-response curves were produced with isoproterenol both before and after 60-minute incubation of test compounds with atria and trachea. […] The degree of cardioselectivity was estimated from the ratio, KB trachea/KB atria (10^(pA2 atria-pA2 trachea)). A ratio greater than one indicates cardioselectivity. Test drugs were dissolved in distilled water and added to the bath (30 ml) in a volume of 10 or 100 μl.

β2 receptors, guinea pig trachea, sequence (Q8K4Z4 whole entry): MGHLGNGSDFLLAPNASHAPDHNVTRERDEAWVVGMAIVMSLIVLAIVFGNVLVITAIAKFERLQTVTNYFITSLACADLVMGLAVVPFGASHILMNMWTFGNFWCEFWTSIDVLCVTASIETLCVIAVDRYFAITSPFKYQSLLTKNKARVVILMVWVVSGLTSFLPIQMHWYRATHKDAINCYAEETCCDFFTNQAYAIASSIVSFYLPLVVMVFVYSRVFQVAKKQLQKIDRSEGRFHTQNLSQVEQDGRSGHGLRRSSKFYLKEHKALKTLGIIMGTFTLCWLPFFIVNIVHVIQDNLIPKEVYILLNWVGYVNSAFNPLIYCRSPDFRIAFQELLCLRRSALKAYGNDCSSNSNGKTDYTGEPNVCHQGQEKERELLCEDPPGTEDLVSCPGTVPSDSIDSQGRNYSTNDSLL

| Kb [1] [nM] | remaining at 1 h [2] [%] | remaining at 2 h [2] [%] | SMILES | Cardioselectivity KB (Trachea)/KB (Atria) [3] |
| --- | --- | --- | --- | --- |
| 100 | 54 | 47 | COC(=O)c1ccccc1OCC(O)CNCCNC(C)=O (stereo not drawn) [Example I, Methyl 2-[2-Hydroxy-3-[N-2(-acetamidoethyl)amino]propoxy]benzoate] | 2 |
| 31.6 | 41 | 16 | COC(=O)c1ccccc1OCC(O)CNCCNC(=O)C(C)C (stereo not drawn) [II, Methyl 2-[2-Hydroxy-3-[N-[2-(2-methylpropionamido)ethyl]amino]propoxy]benzoate] | 4 |
| 20 | 53 | 23 | COC(=O)c1ccccc1OCC(O)CNCCNC(=O)Cc1ccccc1 (stereo not drawn) [III, Methyl 2-[2-Hydroxy-3-[N-[2-(phenylacetamido)ethyl]amino]propoxy]benzoate] | 4 |
